Assay [1] concerns sulfate reducing bacteria. In words: Inhibition of hydrogen sulfide generation by sulfate reducers in serum bottles. It is filed as cell-based. The conditions noted are these: 48 hours incubation; for Sulfide Formation Level Sample A: replicate bottle A; for Sulfide Formation Level Sample B: replicate bottle B; for Sulfide Formation Level Sample C: replicate bottle C. As to the method: The test protocol was as follows: 100 mL serum bottles were filled with synthetic nutrient medium, then stoppered, capped, and autoclaved, and allowed to cool to at least 35° C. Using a 1 mL syringe with needle, the treatment was added at desired dosages to prepared serum bottles (triplicates of each dosage). No treatment was added for baseline controls. Nine baseline serum bottles were used. Next, a 10^10 cells/ml concentration of the sulfate reducers was prepared (using autoclaved synthetic nutrient medium) inside an anaerobic chamber. Using a 1 ml syringe with needle, 0.1 ml of the prepared sulfate reducers culture was added to each serum bottle. The bottles were then incubated at the desired temperature for 48 hours. The baseline dissolved sulfide levels were then measured to determine if the samples were ready for efficacy analysis. Using a 30 mL syringe with needle, 30 mL of sample was removed from each serum bottle. About 25 mL of the sample was added to a 30 mL bottle containing 0.125 mL zinc acetate solution, followed by adding 1 mL of 1N NaOH. The sulfide in the fixed sample was then measured. If the control sample sulfide levels were >10 ppm, then the whole series of test vials was evaluated for generated sulfide. The remaining 5 mL of sample in the syringe was used for a final pH determination.

Assay [2] deals with sulfate reducing bacteria. In words: Sulfate reducing bacteria viability (SRB/ml) after treatment. It is filed as cell-based. As to the method:
The test protocol was as follows: 100 mL serum bottles were filled with synthetic nutrient medium, then stoppered, capped, and autoclaved, and allowed to cool to at least 35° C. Using a 1 mL syringe with needle, the treatment was added at desired dosages to prepared serum bottles (triplicates of each dosage). No treatment was added for baseline controls. Nine baseline serum bottles were used.
Next, a 10^10 cells/ml concentration of the sulfate reducers was prepared (using autoclaved synthetic nutrient medium) inside an anaerobic chamber. Using a 1 ml syringe with needle, 0.1 ml of the prepared sulfate reducers culture was added to each serum bottle. The bottles were then incubated at the desired temperature for 48 hours.

In the case of `NCCO` [monoethanolamine], the “Sulfide Formation Level Sample A” value is given as 1+ (1+ = 0.1-1.0 ppm Sulfide) in assay [1] (inhibitor dose conc. 25 ppm), 1+ (1+ = 0.1-1.0 ppm Sulfide) in assay [1] (inhibitor dose conc. 50 ppm) and 0 (0 = <0.1 ppm Sulfide) in assay [1] (inhibitor dose conc. 100 ppm). The “Sulfide Formation Level Sample B” value in assay [1] (inhibitor dose conc. 25 ppm) was 1+ (1+ = 0.1-1.0 ppm Sulfide); in assay [1] (inhibitor dose conc. 50 ppm) it was 1+ (1+ = 0.1-1.0 ppm Sulfide); in assay [1] (inhibitor dose conc. 100 ppm), 0 (0 = <0.1 ppm Sulfide). Moreover, the “Sulfide Formation Level Sample C” value in assay [1] (inhibitor dose conc. 25 ppm) is 1+ (1+ = 0.1-1.0 ppm Sulfide); in assay [1] (inhibitor dose conc. 50 ppm), 0 (0 = <0.1 ppm Sulfide); in assay [1] (inhibitor dose conc. 100 ppm) it was 0 (0 = <0.1 ppm Sulfide). Also, the SRB/ml in assay [2] (inhibitor dose conc. 25 ppm), in assay [2] (inhibitor dose conc. 50 ppm) and in assay [2] (inhibitor dose conc. 100 ppm) was 100,000 SRB/ml throughout.
Turning to `Sc1nc2ccccc2s1` [2-mercaptobenzothiazole], the “Sulfide Formation Level Sample A” value in assay [1] (inhibitor dose conc. 25 ppm), in assay [1] (inhibitor dose conc. 50 ppm) and in assay [1] (inhibitor dose conc. 100 ppm) was 0 (0 = <0.1 ppm Sulfide) throughout. In addition, the “Sulfide Formation Level Sample B” value in assay [1] (inhibitor dose conc. 25 ppm), in assay [1] (inhibitor dose conc. 50 ppm) and in assay [1] (inhibitor dose conc. 100 ppm) was 0 (0 = <0.1 ppm Sulfide) each time. In addition, the “Sulfide Formation Level Sample C” value in assay [1] (inhibitor dose conc. 25 ppm), in assay [1] (inhibitor dose conc. 50 ppm) and in assay [1] (inhibitor dose conc. 100 ppm) was 0 (0 = <0.1 ppm Sulfide) in each case. Also, the SRB/ml is on record as 10,000 SRB/ml in assay [2] (inhibitor dose conc. 25 ppm), 100,000 SRB/ml in assay [2] (inhibitor dose conc. 50 ppm) and 10,000 SRB/ml in assay [2] (inhibitor dose conc. 100 ppm).
Turning to `CC[C@@]1([C@@H]2O[C@@H]([C@H]3O[C@@](O)(CO)[C@H](C)C[C@@H]3C)C[C@@H]2C)CC[C@H]([C@]2(C)CC[C@]3(C[C@H](O)[C@@H](C)[C@@H]([C@@H](C)[C@@H](OC)[C@H](C)C(=O)O)O3)O2)O1` [monensin, reference compound], the “Sulfide Formation Level Sample A” value is given as 1+ (1+ = 0.1-1.0 ppm Sulfide) in assay [1] (inhibitor dose conc. 25 ppm), 0 (0 = <0.1 ppm Sulfide) in assay [1] (inhibitor dose conc. 50 ppm) and 0 (0 = <0.1 ppm Sulfide) in assay [1] (inhibitor dose conc. 100 ppm). Also, the “Sulfide Formation Level Sample B” value in assay [1] (inhibitor dose conc. 25 ppm) is listed as 1+ (1+ = 0.1-1.0 ppm Sulfide); in assay [1] (inhibitor dose conc. 50 ppm), 0 (0 = <0.1 ppm Sulfide); in assay [1] (inhibitor dose conc. 100 ppm) it was 0 (0 = <0.1 ppm Sulfide). The “Sulfide Formation Level Sample C” value in assay [1] (inhibitor dose conc. 25 ppm), in assay [1] (inhibitor dose conc. 50 ppm) and in assay [1] (inhibitor dose conc. 100 ppm) was 0 (0 = <0.1 ppm Sulfide) in each case. Besides, the SRB/ml is 1,000,000 SRB/ml in assay [2] (inhibitor dose conc. 25 ppm), 100,000 SRB/ml in assay [2] (inhibitor dose conc. 50 ppm) and 10,000 SRB/ml in assay [2] (inhibitor dose conc. 100 ppm).
